# Where two headings read alike, the source gives them in different places.
# Legend:
# CrFK cell culture = experiment: Cell toxicity / cytopathic effect on host cells in the FIP-2 corona virus test; type: cell-based
# Text: (§1) Untreated virus served as controls. […] They were then observed microscopically for CPE inhibition, reporting titers as TCID 50/ml, also expressed as plaque forming units (pfu's). The corrected virus titer (# positives×dilution) is reported in log/ml. Virucidal activity is thus defined as the number of logs reduction of virus titer between the test article and the control (Reed and Muench, Am. J. Hyg. 27:493-497, 1938).
# [1] = test system: Feline Infectious Peritonitis Type 2 (“FIP Type 2”) corona virus; experiment: Virucidal bioassay: FIP-2 corona virus suspension exposed to test article, then titrated in CrFK cell culture (TCID50, Reed and Muench); type: cell-based, Feline Infectious Peritonitis Type 2 corona virus; settings: for FIP-2 Titer / % Reduction / Reduction in Titer: 300 seconds exposure; for FIP-2 Titer: control titer 6.70 logs/ml
# Text: as §1
# [2] = test system: CrFK (ATCC type CCL-94) cell culture; experiment: Cytotoxicity of CPC in the FeLV test
# Description: (§2) FeLV retrovirus was gown in cell culture to a titer of 6.0 logs/ml.
# (§3) Briefly, virus suspensions were exposed to three concentrations of CPC, 0.025%, 0.05%, and 0.10%, for 300 seconds. Untreated virus served as controls. At the end of the exposure, the virus was titrated in CrFK cell culture. Viral titration was accomplished at each test article concentration by seeding 0.1 ml of a serial dilution of treated virus to the CrFK cell culture. Serial dilutions were prepared from 10^−1 to 10^−8 of the original virus concentration, or five million/ml (6.7 log units) and each dilution then placed in each of four wells (replicates) of a 96 well microplate. The inoculated cells (80 μl per well) are then incubated at 37° C. in a CO2 incubator for five days.
# [3] = test system: influenza A/Equi 2?Miami 1/63, ATCC VR517; experiment: Virucidal assay: influenza virus exposed to CPC solutions, titrated in MDCK cell culture (Reed and Muench); type: cell-based, Orthomyxoviridie virus (influenza A/Equi 2)
# [4] = test system: MDCK (NBL-2)5 (ATCC type CCL-34) cell culture
# FeLV retrovirus = settings: for reduction in the viral titer: 300 seconds, titer 6.0 logs/ml
# Description: as §2, §3
# pH of acid solutions = type: physicochemical; settings: at 0.1%
compound,measurement,setting,value
"Oc1cc(Cl)ccc1Oc1ccc(Cl)cc1Cl [Triclosan, triclosan]",cellular toxicity,"CrFK cell culture; three concentrations as employed with CPC (0.025%, 0.05%, 0.10%)",cellular toxicity at all three levels
same,viral reduction,"[1]; all three levels (0.025%, 0.05%, 0.10%)",no viral reduction
"CCCCCCCCCCCCCCCC[n+]1ccccc1 [CPC, Cetylpyridinium chloride]",cytotoxic,[2]; CPC 0.025%,not cytotoxic
same,cytotoxic,[2]; CPC 0.05%,cytotoxic
same,cytotoxic,[2]; CPC 0.1%,cytotoxic
same,adverse cytopathic effects,"CrFK cell culture; 0.025% in solution, five minutes",without adverse cytopathic effects
same,reduction to the virus titers,[3]; 0.025% (weight/volume) CPC with 0.1% citric acid (weight/volume),greater than 3.5 log
same,reduction to the virus titers,[3]; 0.05% (weight/volume) CPC with 0.1% citric acid (weight/volume),greater than 3.5 log
same,cytotoxic affects,[4]; test solutions containing 0.025% CPC and 0.1% citric acid,no observed cytotoxic affects
same,FIP-2 Titer,[1]; CPC 0.025%,3.30 logs/ml
same,% Reduction,[1]; CPC 0.05%,99.97%
same,Reduction in Titer,[1]; CPC 0.05%,>3.20 logs
same,FIP-2 Titer,[1]; CPC 0.05%,<3.50 logs/ml
same,% Reduction,[1]; CPC 0.10%,99.97%
same,Reduction in Titer,[1]; CPC 0.10%,>3.20 logs
same,FIP-2 Titer,[1]; CPC 0.10%,<3.50 logs/ml
same,reduction in the viral titer,FeLV retrovirus; CPC 0.025% in conjunction 0.1% citric acid,greater than 3.5 logs/ml
same,reduction in the viral titer,FeLV retrovirus; CPC 0.025% without citric acid,greater than 3.5 logs/ml
same,reduction of the FeLV virus,"FeLV retrovirus; all three levels of CPC (0.025%, 0.05%, 0.10%) with or without citric acid at 0.1%",100%
O=C(O)CC(O)(CC(=O)O)C(=O)O [citric acid],cytotoxic,[4]; acid solution at 0.1%,neither solution was cytotoxic
same,pH,pH of acid solutions,2.3
CC(=O)O [acetic acid],pH,pH of acid solutions,2.3
